Experimental data: ChEMBL document CHEMBL1133561, “A novel class of potent 3-isoxazolol GABA(A) antagonists: design, synthesis, and pharmacology” (J Med Chem, 2000)

Experiments:
[1] = target: GABA-A receptor; anion channel; test: Inhibition against Gamma-aminobutyric acid A (GABA-A) receptor; format: protein-complex assay, Rattus norvegicus
[2] = target: GABA-A receptor; anion channel; test: In vitro inhibition of [3H]muscimol to rat brain synaptic membranes; format: cell membranes, Membrane
[3] = target: GABA-A receptor; anion channel; test: Inhibition of Gamma-aminobutyric acid A (GABA-A) receptor in vitro by whole-cell patch-clamp recording in cultured cerebral cortical neurones; format: functional, Rattus norvegicus

Structure (SMILES)	Ki [2] [µM]	IC50 [3] [µM]	IC50 [1] [µM]
Cc1c(O)noc1CN			> 100
Oc1noc(C2CCNCC2)c1Cc1c2ccccc2cc2ccccc12	5.9		
Cc1c(O)noc1C1CCNCC1	10		
CCc1c(O)noc1C1CCNCC1	6.3		
Oc1noc(C2CCNCC2)c1CCc1ccc2ccccc2c1	0.49		

Further lines, with some results ahead:

Ki [2] [µM]	IC50 [3] [µM]	Structure (SMILES)	IC50 [1] [µM]
3.8	4	Oc1noc(C2CCNCC2)c1Cc1ccccc1	
0.049		Oc1noc(C2CCNCC2)c1Cc1ccc2ccccc2c1	
